Laboratory results taken from patent publication US12404262B2 (priority 2021, dated 2025).

Details: 1.0% DMSO, 24-hour incubation at ambient temperature, maximum theoretical 100 μM; for pH 2 solubility: 0.1N HCl, first value of the cell; for pH 7 solubility: 1×PBS buffer (pH 7.4), second value of the cell

SMILES | pH 2 solubility | pH 7 solubility
COC(=O)CN(C)C(=O)N(c1nn(CC(F)(F)F)c2c(-c3ccc(C#CC(C)(C)S(C)(=O)=O)nc3[C@H](Cc3cc(F)cc(F)c3)NC(=O)Cn3nc(C(F)(F)F)c4c3C(F)(F)[C@@H]3C[C@H]43)ccc(Cl)c12)S(C)(=O)=O [Compound 43, methyl N-((4-chloro-7-(2-((S)-1-(2-((3bS,4aR)-5,5-difluoro-3-(trifluoromethyl)-3b,4,4a,5-tetrahydro-1H-cyclopropa[3,4]cyclopenta[1,2-c]pyrazol-1-yl)acetamido)-2-(3,5-difluorophenyl)ethyl)-6-(3-methyl-3-(methylsulfonyl)but-1-yn-1-yl)pyridin-3-yl)-1-(2,2,2-trifluoroethyl)-1H-indazol-3-yl)(methylsulfonyl)carbamoyl)-N-methylglycinate] | 1/1 μM | 1/1 μM
CN(CC(C)(C)O)C(=O)N(c1nn(CC(F)(F)F)c2c(-c3ccc(C#CC(C)(C)S(C)(=O)=O)nc3[C@H](Cc3cc(F)cc(F)c3)NC(=O)Cn3nc(C(F)(F)F)c4c3C(F)(F)[C@@H]3C[C@H]43)ccc(Cl)c12)S(C)(=O)=O [Compound 47, N—((S)-1-(3-(4-chloro-3-(N-((2-hydroxy-2-methylpropyl)(methyl)carbamoyl)methylsulfonamido)-1-(2,2,2-trifluoroethyl)-1H-indazol-7-yl)-6-(3-methyl-3-(methylsulfonyl)but-1-yn-1-yl)pyridin-2-yl)-2-(3,5-difluorophenyl)ethyl)-2-((3bS,4aR)-5,5-difluoro-3-(trifluoromethyl)-3b,4,4a,5-tetrahydro-1H-cyclopropa[3,4]cyclopenta[1,2-c]pyrazol-1-yl)acetamide] | 1/1 μM | 1/1 μM
C[C@@H](O)CN(C)C(=O)N(c1nn(CC(F)(F)F)c2c(-c3ccc(C#CC(C)(C)S(C)(=O)=O)nc3[C@H](Cc3cc(F)cc(F)c3)NC(=O)Cn3nc(C(F)(F)F)c4c3C(F)(F)[C@@H]3C[C@H]43)ccc(Cl)c12)S(C)(=O)=O [Compound 48, N—((S)-1-(3-(4-chloro-3-(N—(((R)-2-hydroxypropyl)(methyl)carbamoyl)methylsulfonamido)-1-(2,2,2-trifluoroethyl)-1H-indazol-7-yl)-6-(3-methyl-3-(methylsulfonyl)but-1-yn-1-yl)pyridin-2-yl)-2-(3,5-difluorophenyl)ethyl)-2-((3bS,4aR)-5,5-difluoro-3-(trifluoromethyl)-3b,4,4a,5-tetrahydro-1H-cyclopropa[3,4]cyclopenta[1,2-c]pyrazol-1-yl)acetamide] | 1/1 μM | 1/1 μM
C[C@H](CN(C)C(=O)N(c1nn(CC(F)(F)F)c2c(-c3ccc(C#CC(C)(C)S(C)(=O)=O)nc3[C@H](Cc3cc(F)cc(F)c3)NC(=O)Cn3nc(C(F)(F)F)c4c3C(F)(F)[C@@H]3C[C@H]43)ccc(Cl)c12)S(C)(=O)=O)OP(=O)(O)O [Compound 49, (R)-1-(3-(4-chloro-7-(2-((S)-1-(2-((3bS,4aR)-5,5-difluoro-3-(trifluoromethyl)-3b,4,4a,5-tetrahydro-1H-cyclopropa[3,4]cyclopenta[1,2-c]pyrazol-1-yl)acetamido)-2-(3,5-difluorophenyl)ethyl)-6-(3-methyl-3-(methylsulfonyl)but-1-yn-1-yl)pyridin-3-yl)-1-(2,2,2-trifluoroethyl)-1H-indazol-3-yl)-1-methyl-3-(methylsulfonyl)ureido)propan-2-yl dihydrogen phosphate] | 1 μM | 82 μM
CN(CCO)C(=O)N(c1nn(CC(F)(F)F)c2c(-c3ccc(C#CC(C)(C)S(C)(=O)=O)nc3[C@H](Cc3cc(F)cc(F)c3)NC(=O)Cn3nc(C(F)(F)F)c4c3C(F)(F)[C@@H]3C[C@H]43)ccc(Cl)c12)S(C)(=O)=O [Compound 50, N—((S)-1-(3-(4-chloro-3-(N-((2-hydroxyethyl)(methyl)carbamoyl)methylsulfonamido)-1-(2,2,2-trifluoroethyl)-1H-indazol-7-yl)-6-(3-methyl-3-(methylsulfonyl)but-1-yn-1-yl)pyridin-2-yl)-2-(3,5-difluorophenyl)ethyl)-2-((3bS,4aR)-5,5-difluoro-3-(trifluoromethyl)-3b,4,4a,5-tetrahydro-1H-cyclopropa[3,4]cyclopenta[1,2-c]pyrazol-1-yl)acetamide] | 1 μM | 2 μM
CC(NC(=O)N(c1nn(CC(F)(F)F)c2c(-c3ccc(C#CC(C)(C)S(C)(=O)=O)nc3[C@H](Cc3cc(F)cc(F)c3)NC(=O)Cn3nc(C(F)(F)F)c4c3C(F)(F)[C@@H]3C[C@H]43)ccc(Cl)c12)S(C)(=O)=O)(C(=O)O)C(=O)O [Compound 52, 2-(3-(4-chloro-7-(2-((S)-1-(2-((3bS,4aR)-5,5-difluoro-3-(trifluoromethyl)-3b,4,4a,5-tetrahydro-1H-cyclopropa[3,4]cyclopenta[1,2-c]pyrazol-1-yl)acetamido)-2-(3,5-difluorophenyl)ethyl)-6-(3-methyl-3-(methylsulfonyl)but-1-yn-1-yl)pyridin-3-yl)-1-(2,2,2-trifluoroethyl)-1H-indazol-3-yl)-3-(methylsulfonyl)ureido)-2-methylmalonic acid] | 1 μM | 100 μM
CC(C)(C#Cc1ccc(-c2ccc(Cl)c3c(N(C(=O)NCCCP(=O)(O)O)S(C)(=O)=O)nn(CC(F)(F)F)c23)c([C@H](Cc2cc(F)cc(F)c2)NC(=O)Cn2nc(C(F)(F)F)c3c2C(F)(F)[C@@H]2C[C@H]32)n1)S(C)(=O)=O [Compound 54-1, (3-(3-(4-chloro-7-(2-((S)-1-(2-((3bS,4aR)-5,5-difluoro-3-(trifluoromethyl)-3b,4,4a,5-tetrahydro-1H-cyclopropa[3,4]cyclopenta[1,2-c]pyrazol-1-yl)acetamido)-2-(3,5-difluorophenyl)ethyl)-6-(3-methyl-3-(methylsulfonyl)but-1-yn-1-yl)pyridin-3-yl)-1-(2,2,2-trifluoroethyl)-1H-indazol-3-yl)-3-(methylsulfonyl)ureido)propyl)phosphonic acid] | 1 μM | 14 μM
CC(C)(C#Cc1ccc(-c2ccc(Cl)c3c(N(C(=O)NCCCCP(=O)(O)O)S(C)(=O)=O)nn(CC(F)(F)F)c23)c([C@H](Cc2cc(F)cc(F)c2)NC(=O)Cn2nc(C(F)(F)F)c3c2C(F)(F)[C@@H]2C[C@H]32)n1)S(C)(=O)=O [Compound 55, (4-(3-(4-chloro-7-(2-((S)-1-(2-((3bS,4aR)-5,5-difluoro-3-(trifluoromethyl)-3b,4,4a,5-tetrahydro-1H-cyclopropa[3,4]cyclopenta[1,2-c]pyrazol-1-yl)acetamido)-2-(3,5-difluorophenyl)ethyl)-6-(3-methyl-3-(methylsulfonyl)but-1-yn-1-yl)pyridin-3-yl)-1-(2,2,2-trifluoroethyl)-1H-indazol-3-yl)-3-(methylsulfonyl)ureido)butyl)phosphonic acid] | 1 μM | 13 μM
C[C@@H](O)[C@H](NC(=O)N(c1nn(CC(F)(F)F)c2c(-c3ccc(C#CC(C)(C)S(C)(=O)=O)nc3[C@H](Cc3cc(F)cc(F)c3)NC(=O)Cn3nc(C(F)(F)F)c4c3C(F)(F)[C@@H]3C[C@H]43)ccc(Cl)c12)S(C)(=O)=O)C(=O)O [Compound 61, ((4-chloro-7-(2-((S)-1-(2-((3bS,4aR)-5,5-difluoro-3-(trifluoromethyl)-3b,4,4a,5-tetrahydro-1H-cyclopropa[3,4]cyclopenta[1,2-c]pyrazol-1-yl)acetamido)-2-(3,5-difluorophenyl)ethyl)-6-(3-methyl-3-(methylsulfonyl)but-1-yn-1-yl)pyridin-3-yl)-1-(2,2,2-trifluoroethyl)-1H-indazol-3-yl)(methylsulfonyl)carbamoyl)-L-threonine] | 1 μM | 9 μM
C[C@@H](OP(=O)(O)O)[C@H](NC(=O)N(c1nn(CC(F)(F)F)c2c(-c3ccc(C#CC(C)(C)S(C)(=O)=O)nc3[C@H](Cc3cc(F)cc(F)c3)NC(=O)Cn3nc(C(F)(F)F)c4c3C(F)(F)[C@@H]3C[C@H]43)ccc(Cl)c12)S(C)(=O)=O)C(=O)O [Compound 62, N-((4-chloro-7-(2-((S)-1-(2-((3bS,4aR)-5,5-difluoro-3-(trifluoromethyl)-3b,4,4a,5-tetrahydro-1H-cyclopropa[3,4]cyclopenta[1,2-c]pyrazol-1-yl)acetamido)-2-(3,5-difluorophenyl)ethyl)-6-(3-methyl-3-(methylsulfonyl)but-1-yn-1-yl)pyridin-3-yl)-1-(2,2,2-trifluoroethyl)-1H-indazol-3-yl)(methylsulfonyl)carbamoyl)-O-phosphono-L-threonine] | 4 μM | 14 μM
CC(C)(C#Cc1ccc(-c2ccc(Cl)c3c(N(C(=O)N[C@@](C)(CC(=O)O)C(=O)O)S(C)(=O)=O)nn(CC(F)(F)F)c23)c([C@H](Cc2cc(F)cc(F)c2)NC(=O)Cn2nc(C(F)(F)F)c3c2C(F)(F)[C@@H]2C[C@H]32)n1)S(C)(=O)=O [Compound 65, (S)-2-(3-(4-chloro-7-(2-((S)-1-(2-((3bS,4aR)-5,5-difluoro-3-(trifluoromethyl)-3b,4,4a,5-tetrahydro-1H-cyclopropa[3,4]cyclopenta[1,2-c]pyrazol-1-yl)acetamido)-2-(3,5-difluorophenyl)ethyl)-6-(3-methyl-3-(methylsulfonyl)but-1-yn-1-yl)pyridin-3-yl)-1-(2,2,2-trifluoroethyl)-1H-indazol-3-yl)-3-(methylsulfonyl)ureido)-2-methylsuccinic acid] | 1 μM | 52 μM
CC(C)(C#Cc1ccc(-c2ccc(Cl)c3c(N(C(=O)N[C@H](CC(=O)O)C(=O)O)S(C)(=O)=O)nn(CC(F)(F)F)c23)c([C@H](Cc2cc(F)cc(F)c2)NC(=O)Cn2nc(C(F)(F)F)c3c2C(F)(F)[C@@H]2C[C@H]32)n1)S(C)(=O)=O [Compound 70, ((4-chloro-7-(2-((S)-1-(2-((3bS,4aR)-5,5-difluoro-3-(trifluoromethyl)-3b,4,4a,5-tetrahydro-1H-cyclopropa[3,4]cyclopenta[1,2-c]pyrazol-1-yl)acetamido)-2-(3,5-difluorophenyl)ethyl)-6-(3-methyl-3-(methylsulfonyl)but-1-yn-1-yl)pyridin-3-yl)-1-(2,2,2-trifluoroethyl)-1H-indazol-3-yl)(methylsulfonyl)carbamoyl)-D-aspartic acid] | 1 μM | 58 μM
